US20240148821A1, “PHARMACEUTICAL USE OF CYCLIC PEPTIDE COMPOUND” (CHUGAI SEIYAKU KABUSHIKI KAISHA, priority 2021, published 2024)
Numbered stars: 1 amine (or outer) side, 2 acyl side, 3 side chain; on linkers, the order of the positions; unused ones are H or OH. Bridge positions count the residues as written; N and C are the ends. Square brackets hold non-standard residues; d marks the D form. Peptide text beside a SMILES is read from it. * marks the point of attachment. hPhe(3,5-F2-4-CF3) = N[C@@H](CCc1cc(F)c(C(F)(F)F)c(F)c1)C(=O)O; hPhe(3-Cl-4-CF3) = N[C@@H](CCc1ccc(C(F)(F)F)c(Cl)c1)C(=O)O; hPhe(3-F,4-CF3) = N[C@@H](CCc1ccc(C(F)(F)F)c(F)c1)C(=O)O; NEtPhe(4-Me) = CCN[C@@H](Cc1ccc(C)cc1)C(=O)O; NMePhe(4-Cl) = CN[C@@H](Cc1ccc(Cl)cc1)C(=O)O; X29 = O=C([C@H](CCc1cc(Cl)ccc1F)N[*:1])[*:2]; NMePhe(4-Me) = CN[C@@H](Cc1ccc(C)cc1)C(=O)O; NMedβ3hAla = C[C@H](CC(=O)[*:2])N(C)[*:1]; NMeGly(cPent) = CN[C@H](C(=O)O)C1CCCC1; Phe(3-I) = N[C@@H](Cc1cccc(I)c1)C(=O)O; NMeCha = CN[C@@H](CC1CCCCC1)C(=O)O; NMehLeu = CN[C@@H](CCC(C)C)C(=O)O; Hyp = O=C(O)[C@@H]1C[C@@H](O)CN1; NMeChg = CN[C@H](C(=O)O)C1CCCCC1; NMeF = CN[C@@H](Cc1ccccc1)C(=O)O; N(CH2CH2)2CF2 = FC1(F)CCN(*)CC1; NMeD = CN[C@@H](CC(=O)O)C(=O)O; NMeL = CN[C@@H](CC(C)C)C(=O)O; NMeV = CN[C@H](C(=O)O)C(C)C; d(β3hA) = C[C@@H](N)CC(=O)O; Morpholide = C1CN(*)CCO1; NMeA = CN[C@@H](C)C(=O)O; NMeAib = CNC(C)(C)C(=O)O; Piperidide = C1CCN(*)CC1; Ac5c = NC1(C(=O)O)CCCC1; Aze = O=C(O)[C@@H]1CCN1; Ac4c = NC1(C(=O)O)CCC1; Sar = CNCC(=O)O

Biological target: protein-protein interaction between Kras and SOS1 (biotin-tagged human Kras loaded with GDP, His-tagged human SOS1) (Homo sapiens (Human), UniProt P01116, G12D)
Assay: Protein-protein interaction inhibition between Kras and SOS1 (KrasG12D-SOS PPI) using AlphaScreen;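 note: kras produced in E. coli, Ni-coupled donor beads and streptavidin acceptor beads, excitation 680 nm with emission detected at 520–620 nm via singlet oxygen transfer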
Format: biochemical
Conditions: AlphaScreen; biotin-tagged human Kras loaded with GDP, His-tagged human SOS1; read-out: KRAS G12D-SOS PPI IC50

Compared with `CC[C@H](C)[C@@H]1NC(=O)[C@H](CC(C)C)N(C)C(=O)C[C@@H](C(=O)N2CCOCC2)N(C)C(=O)[C@H](C2CCCC2)N(C)C(=O)C2(CCCC2)NC(=O)[C@@H]2CCCN2C(=O)[C@H](CCc2ccc(C(F)(F)F)c(Cl)c2)NC(=O)CN(C)C(=O)[C@H](CC2CCCCC2)N(C)C(=O)[C@@H]2CCN2C(=O)[C@H](C)NC1=O` [Compound 1137] ([NMeL]IA[Aze][NMeCha][Sar][hPhe(3-Cl-4-CF3)]P[Ac5c][NMeGly(cPent)][NMeD]-Morpholide; lactam N-11), `CC[C@H](C)[C@@H]1NC(=O)[C@H](CCC(C)C)N(C)C(=O)C[C@@H](C(=O)N2CCOCC2)N(C)C(=O)[C@H](C2CCCC2)N(C)C(=O)C2(CCCC2)NC(=O)[C@@H]2CCCN2C(=O)[C@H](CCc2ccc(C(F)(F)F)c(Cl)c2)NC(=O)CN(C)C(=O)[C@H](CC2CCCCC2)N(C)C(=O)[C@@H]2CCN2C(=O)[C@H](C)NC1=O` [Compound 1171] ([NMehLeu]IA[Aze][NMeCha][Sar][hPhe(3-Cl-4-CF3)]P[Ac5c][NMeGly(cPent)][NMeD]-Morpholide; lactam N-11) is 4.6-fold lower in IC50: 4.6 nM for the first, 0.99 nM for the second. The second is the more potent here.

Going from `CC[C@H](C)[C@@H]1NC(=O)[C@H](CC(C)C)N(C)C(=O)C[C@@H](C(=O)N(C)C)N(C)C(=O)[C@H](C2CCCC2)N(C)C(=O)C2(CCCC2)NC(=O)[C@@H]2CCCN2C(=O)[C@H](CCc2ccc(C(F)(F)F)c(F)c2)NC(=O)CN(C)C(=O)[C@H](CC2CCCCC2)N(C)C(=O)[C@@H]2CCN2C(=O)[C@H](C)NC1=O` [Compound 1164] ([NMeL]IA[Aze][NMeCha][Sar][hPhe(3-F,4-CF3)]P[Ac5c][NMeGly(cPent)][NMeD]-NMe2; lactam N-11) to `CC[C@H](C)[C@@H]1NC(=O)[C@H](CC(C)C)N(C)C(=O)C[C@@H](C(=O)N2CCCCC2)N(C)C(=O)[C@H](C(C)C)N(C)C(=O)C2(CCCC2)NC(=O)[C@@H]2CCCN2C(=O)[C@H](CCc2ccc(C(F)(F)F)c(Cl)c2)NC(=O)CN(C)C(=O)[C@H](CC2CCCCC2)N(C)C(=O)[C@@H]2CCN2C(=O)[C@H](C)NC1=O` [Compound 1334] ([NMeL]IA[Aze][NMeCha][Sar][hPhe(3-Cl-4-CF3)]P[Ac5c][NMeV][NMeD]-Piperidide; lactam N-11), the IC50 rises from 1.4 nM to 3 nM (2.1-fold).

First: CC[C@H](C)[C@@H]1NC(=O)[C@H](C(C)C)N(C)C(=O)C[C@@H](C(=O)N2CCCCC2)N(C)C(=O)[C@H](C(C)C)N(C)C(=O)C2(CCCC2)NC(=O)[C@@H]2CCCN2C(=O)[C@H](CCc2ccc(C(F)(F)F)c(Cl)c2)NC(=O)CN(C)C(=O)[C@H](CC2CCCCC2)N(C)C(=O)[C@@H]2CCN2C(=O)[C@H](C)N(C)C1=O [Compound 1767] ([NMeV]I[NMeA][Aze][NMeCha][Sar][hPhe(3-Cl-4-CF3)]P[Ac5c][NMeV][NMeD]-Piperidide; lactam N-11)
Second: CCO[C@@H]1C[C@H]2C(=O)NC3(CCC3)C(=O)N(C)[C@@H](C3CCCCC3)C(=O)N(C)[C@H](C)CC(=O)N(C)[C@@H](CC(C)C)C(=O)N[C@@H]([C@@H](C)CC)C(=O)N(C)[C@@H](C)C(=O)N3CC[C@H]3C(=O)N(CC)[C@@H](Cc3ccc(C)cc3)C(=O)N(C)CC(=O)N[C@@H](CCc3cc(F)c(C(F)(F)F)c(F)c3)C(=O)N2C1 [Compound 724] (cyclo([Ac4c][NMeChg][NMedβ3hAla][NMeL]I[NMeA][Aze][NEtPhe(4-Me)][Sar][hPhe(3,5-F2-4-CF3)][Hyp](Et)))
The IC50 of the first is 3.3-fold lower: 7.2 nM for the first, 24 nM for the second.

Compared with `CC[C@H](C)[C@@H]1NC(=O)[C@H](CC(C)C)N(C)C(=O)C[C@@H](C(=O)N2CCC(F)(F)CC2)N(C)C(=O)[C@H](CC(C)C)NC(=O)C(C)(C)N(C)C(=O)[C@H](Cc2ccc(OC)cc2)NC(=O)[C@H](Cc2cccc(I)c2)NC(=O)CN(C)C(=O)[C@H](Cc2ccc(C)cc2)N(C)C(=O)CN(C)C(=O)CN(C)C1=O` [Compound 2101, (3S,9S,12S,18S,27S,30S,34S)-34-(4,4-difluoropiperidine-1-carbonyl)-12-[(3-iodophenyl)methyl]-3,30-diisobutyl-9-[(4-methoxyphenyl)methyl]-1,6,6,7,16,19,22,25,31-nonamethyl-27-[(1S)-1-methylpropyl]-18-(p-tolylmethyl)-1,4,7,10,13,16,19,22,25,28,31-undecazacyclotetratriacontane-2,5,8,11,14,17,20,23,26,29,32-undecone] ([NMeL]I[Sar][Sar][NMePhe(4-Me)][Sar][Phe(3-I)]Y(Me)[NMeAib]L[NMeD]-{N(CH2CH2)2CF2}; lactam N-11), `CC[C@H](C)[C@@H]1NC(=O)[C@H](C)N(C)C(=O)C[C@@H](C)NC(=O)[C@H](CC(C)C)N(C)C(=O)[C@H](Cc2ccccc2)N(C)C(=O)[C@H](CC(C)C)NC(=O)[C@H](CCc2cc(Cl)ccc2F)NC(=O)CN(C)C(=O)[C@H](Cc2ccc(Cl)cc2)N(C)C(=O)CN(C)C(=O)CN(C)C1=O` [Compound 2094] (cyclo(I[Sar][Sar][NMePhe(4-Cl)][Sar][X29]L[NMeF][NMeL][d(β3hA)][NMeA])) is 3.8-fold higher in IC50: 53 nM for the first, 200 nM for the second. The first is the more potent here.
